Measured values published in ChEMBL document CHEMBL1147312, “1-Aryl Tetralin Lignans from Larrea tridentata” (J Nat Prod, 1989).
Active and inactive are the calls of the source. The rule behind the calls is not given here.

System: Rattus norvegicus
Assay: Anti-implantation activity in po dosed rat
Type: functional, organism-based

## C[C@H]1[C@H](c2ccc(O)cc2)c2cc(O)c(O)cc2C[C@H]1C
  Activity: Active

## C[C@H]1[C@H](c2ccc(O)c(O)c2)c2cc(O)c(O)cc2C[C@H]1C
  Activity: inactive
